One experiment concerns the target T1, human CYP11B1 (Homo sapiens, UniProt P15538).
T1 construct: expressed in transfected cells
T1 sequence (P15538 25-503): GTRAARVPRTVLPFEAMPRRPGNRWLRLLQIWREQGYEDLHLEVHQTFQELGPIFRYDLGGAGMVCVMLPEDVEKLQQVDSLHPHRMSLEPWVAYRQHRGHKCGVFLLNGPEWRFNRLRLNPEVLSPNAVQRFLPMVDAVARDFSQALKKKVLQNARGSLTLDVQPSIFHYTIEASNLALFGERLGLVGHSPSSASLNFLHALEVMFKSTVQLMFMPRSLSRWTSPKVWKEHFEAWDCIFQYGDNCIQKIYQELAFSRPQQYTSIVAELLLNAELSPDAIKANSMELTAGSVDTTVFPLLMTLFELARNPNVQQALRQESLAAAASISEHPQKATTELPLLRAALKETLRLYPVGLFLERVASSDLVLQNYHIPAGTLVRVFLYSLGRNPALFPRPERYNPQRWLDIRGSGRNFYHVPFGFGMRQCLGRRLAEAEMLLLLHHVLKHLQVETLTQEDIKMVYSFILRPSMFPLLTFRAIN
Briefly: G-402 cellular enzyme assay, human CYP11B1 (cortisol release, HTRF). It is filed as cell-based. Conditions: G-402 cells expressing human CYP11B1; 1 μM Deoxycortisol. The text has this: (§1) Herein we identified the use of the G-402 cell line as a host cell to ectopically express (transiently or stably) enzymes of the CYP11 family. Specifically we developed stable G-402 cells expressing ectopically human CYP11B1, human CYP11B2, human CYP11A1, cynomolgus CYP11B1 or cynomolgus CYP11B2 enzyme activity. Importantly the identified cell line G-402 expresses co-factors (adrenodoxin and adrenodoxin reductase) important for the activity of the CYP11 family and no relevant enzyme activity of the CYP11 family (in comparison to H295R cells) was detected in these cells. Therefore the G-402 cell line is uniquely suited as a host cell for the ectopic expression of enzymes from the CYP11 family.
(§2) G-402 cells can be obtained from ATCC(CRL-1440) and were originally derived from a renal leiomyoblastoma.
(§3) The expression plasmids contains the ORF for either human/cyno CYP11B1 or CYP11B2 under the control of a suitable promoter (CMV-promoter) and a suitable resistance marker (neomycin). Using standard techniques the expression plasmid is transfected into G-402 cells and these cells are then selected for expressing the given resistance markers. Individual cell-clones are then selected and assessed for displaying the desired enzymatic activity using 11-Deoxycorticosterone (Cyp11B2) or 11-Deoxycortisol (Cyp11B1) as a substrate.
(§4) G-402 cells expressing CYP11 constructs were established as described above and maintained in McCoy's 5a Medium Modified, ATCC Catalog No. 30-2007 containing 10% FCS and 400 μg/ml G418 (Geneticin) at 37° C. under an atmosphere of 5% CO2/95% air. Cellular enzyme assays were performed in DMEM/F12 medium containing 2.5% charcoal treated FCS and appropriate concentration of substrate (0.3-10 uM 11-Deoxycorticosterone, 11-Deoxycortisol or Corticosterone). For assaying enzymatic activity, cells were plated onto 96 well plates and incubated for 16 h. An aliquot of the supernatant is then transferred and analyzed for the concentration of the expected product (Aldosterone for CYP11B2; Cortisol for CYP11B1). The concentrations of these steroids can be determined using HTRF assays from CisBio analyzing either Aldosterone or Cortisol.
(§5) Inhibition of the release of produced steroids can be used as a measure of the respective enzyme inhibition by test compounds added during the cellular enzyme assay. The dose dependent inhibition of enzymatic activity by a compound is calculated by means of plotting added inhibitor concentrations (x-axes) vs. measured steroid/product level (y-axes). The inhibition is then calculated by fitting the following 4-parameter sigmoidal function (Morgan-Mercer-Flodin (MMF) model) to the raw data points using the least squares method:
(§6) [formula] wherein, A is the maximum y value, B is the EC50 factor determined using XLFit, C is the minimum y value and D is the slope value.
(§7) EC50 values for compounds claimed herein were tested with the G402-based assay system described. Cyp11B2 enzyme activity was tested in presence of 1 μM Deoxycorticosterone and variable amounts of inhibitors; Cyp11B1 enzyme activity was tested in presence of 1 μM Deoxycortisol and variable amounts of inhibitors.
On the technique in general: In TR-FRET formats the signal depends on donor and acceptor labels being close together.

The target in another experiment is T2, human CYP11B2 (Homo sapiens, UniProt P19099).
T2 construct: expressed in transfected cells
T2 sequence (P19099 25-503): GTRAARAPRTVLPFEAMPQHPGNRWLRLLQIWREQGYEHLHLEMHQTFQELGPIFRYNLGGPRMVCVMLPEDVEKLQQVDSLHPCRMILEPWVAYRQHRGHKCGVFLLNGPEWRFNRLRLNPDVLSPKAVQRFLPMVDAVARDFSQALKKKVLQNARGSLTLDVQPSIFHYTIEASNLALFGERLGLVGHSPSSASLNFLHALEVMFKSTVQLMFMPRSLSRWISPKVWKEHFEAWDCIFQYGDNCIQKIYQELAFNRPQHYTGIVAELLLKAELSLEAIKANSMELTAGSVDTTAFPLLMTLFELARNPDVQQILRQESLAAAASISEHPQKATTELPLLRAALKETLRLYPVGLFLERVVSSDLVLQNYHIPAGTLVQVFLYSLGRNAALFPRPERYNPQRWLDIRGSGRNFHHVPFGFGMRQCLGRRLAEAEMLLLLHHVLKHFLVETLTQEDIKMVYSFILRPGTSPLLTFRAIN
Briefly: G-402 cellular enzyme assay, human CYP11B2 (aldosterone release, HTRF). It is filed as cell-based. The conditions noted are these: G-402 cells expressing human CYP11B2; 1 μM Deoxycorticosterone.
Source text: as §1, §2, §3, §4, §5, §6, §7

Where a name gives a salt, the structure may show the parent alone.

The term EC50 denotes the concentration at which the effect is half-maximal. Read a low EC50 as greater potency. As to `CCS(=O)(=O)NC(C)c1cncc(-c2ccc3c(c2)CCC(=O)N3C)c1` (single isomer, unassigned) [Example 173, Ethanesulfonic acid {(R or S)-1-[5-(1-methyl-2-oxo-1,2,3,4-tetrahydro-quinolin-6-yl)-pyridin-3-yl]-ethyl}-amide], the EC50 on human CYP11B1 was found to be 800 nM; at human CYP11B2, 31 nM.
Turning to `CCS(=O)(=O)NC(C)c1cncc(-c2ccc3c(c2)CCC(=O)N3C)c1` (single isomer, unassigned) [Example 174, Ethanesulfonic acid {(S or R)-1-[5-(1-methyl-2-oxo-1,2,3,4-tetrahydro-quinolin-6-yl)-pyridin-3-yl]-ethyl}-amide], the half-maximal effective concentration (EC50) stood at 1230 nM on human CYP11B1 and 33 nM at human CYP11B2.
With `CCS(=O)(=O)NC(C)c1cncc(-c2cc3c(cc2F)N(C)C(=O)CC3)c1` (single isomer, unassigned) [Example 190, Ethanesulfonic acid {(R or S)-1-[5-(7-fluoro-1-methyl-2-oxo-1,2,3,4-tetrahydro-quinolin-6-yl)-pyridin-3-yl]-ethyl}-amide], the values for the EC50 on human CYP11B1 and at human CYP11B2 were 442 nM and 7 nM, respectively.
Regarding `CCS(=O)(=O)NC(C)c1cncc(-c2cc3c(cc2F)N(C)C(=O)CC3)c1` (single isomer, unassigned) [Example 191, Ethanesulfonic acid {(S or R)-1-[5-(7-fluoro-1-methyl-2-oxo-1,2,3,4-tetrahydro-quinolin-6-yl)-pyridin-3-yl]-ethyl}-amide], the EC50 on human CYP11B1 came out at 777 nM; at human CYP11B2 it was 10 nM.
`CC(NC(=O)c1ncccc1Cl)c1cncc(-c2ccc3c(c2)CCC(=O)N3C)c1` (single isomer, unassigned) [Example 230, 3-Chloro-pyridine-2-carboxylic acid {(R or S)-1-[5-(1-methyl-2-oxo-1,2,3,4-tetrahydro-quinolin-6-yl)-pyridin-3-yl]-ethyl}-amide]: the EC50 at human CYP11B1 was determined as 7 nM; on human CYP11B2, 1 nM.
Take `Cc1c(-c2ccc3c(c2)CCC(=O)N3C)cncc1C(C)N[S@+]([O-])C(C)(C)C` (single isomer, unassigned) [Example 239, (R)-2-Methyl-propane-2-sulfinic acid {(R or S)-1-[4-methyl-5-(1-methyl-2-oxo-1,2,3,4-tetrahydro-quinolin-6-yl)-pyridin-3-yl]-ethyl}-amide]: the 50% effective concentration (EC50) on human CYP11B1 was 401 nM; at human CYP11B2, 21 nM.
As for `Cc1c(-c2ccc3c(c2)CCC(=O)N3C)cncc1C(C)N` (single isomer, unassigned) [Example 240, 6-[5-((R or S)-1-Amino-ethyl)-4-methyl-pyridin-3-yl]-1-methyl-3,4-dihydro-1H-quinolin-2-one hydrochloride], the EC50 at human CYP11B1 stood at 15000 nM; on human CYP11B2 it was 250 nM.
On the same counts, the results for `Cc1c(-c2ccc3c(c2)CCC(=O)N3C)cncc1C(C)NC(=O)c1ncccc1Cl` (single isomer, unassigned) [Example 241, 3-Chloro-pyridine-2-carboxylic acid {(R or S)-1-[4-methyl-5-(1-methyl-2-oxo-1,2,3,4-tetrahydro-quinolin-6-yl)-pyridin-3-yl]-ethyl}-amide] are 251 nM and 7 nM.
On to `Cc1noc(C)c1C(=O)NC(C)c1cncc(-c2ccc3c(c2)CCC(=O)N3C)c1C` (single isomer, unassigned) [Example 242, 3,5-Dimethyl-isoxazole-4-carboxylic acid {(R or S)-1-[4-methyl-5-(1-methyl-2-oxo-1,2,3,4-tetrahydro-quinolin-6-yl)-pyridin-3-yl]-ethyl}-amide], for which the concentration for a half-maximal effect (EC50) at human CYP11B1 is 3690 nM; at human CYP11B2, 100 nM.
Take `CC(N[S@+]([O-])C(C)(C)C)c1cncc(-c2ccc3c(c2)CCC(=O)N3C)c1Cl` (single isomer, unassigned) [Example 249, (R)-2-Methyl-propane-2-sulfinic acid {(R or S)-1-[4-chloro-5-(1-methyl-2-oxo-1,2,3,4-tetrahydro-quinolin-6-yl)-pyridin-3-yl]-ethyl}-amide]: the EC50 at human CYP11B1 turned out to be 261 nM; on human CYP11B2 it was 14 nM.
For `CC(N)c1cncc(-c2ccc3c(c2)CCC(=O)N3C)c1Cl` (single isomer, unassigned) [Example 250, 6-[5-((R or S)-1-Amino-ethyl)-4-chloro-pyridin-3-yl]-1-methyl-3,4-dihydro-1H-quinolin-2-one hydrochloride], in that order: 1250 nM and 35 nM.
`CC(NC(=O)c1ncccc1Cl)c1cncc(-c2ccc3c(c2)CCC(=O)N3C)c1Cl` (single isomer, unassigned) [Example 251, 3-Chloro-pyridine-2-carboxylic acid {(R or S)-1-[4-chloro-5-(1-methyl-2-oxo-1,2,3,4-tetrahydro-quinolin-6-yl)-pyridin-3-yl]-ethyl}-amide]: the figures for the EC50 at human CYP11B1 and at human CYP11B2 were 6 nM and 1 nM, respectively.
With `Cc1c(-c2cc3c(cc2F)N(C)C(=O)CC3)cncc1C(C)N[S@+]([O-])C(C)(C)C` (single isomer, unassigned) [Example 252, (R)-2-Methyl-propane-2-sulfinic acid {(R or S)-1-[5-(7-fluoro-1-methyl-2-oxo-1,2,3,4-tetrahydro-quinolin-6-yl)-4-methyl-pyridin-3-yl]-ethyl}-amide], the EC50 on human CYP11B1 was 468 nM; at human CYP11B2, 26 nM.
For the compound `Cc1c(-c2cc3c(cc2F)N(C)C(=O)CC3)cncc1C(C)N` (single isomer, unassigned) [Example 253, 6-[5-((R or S)-1-Amino-ethyl)-4-methyl-pyridin-3-yl]-7-fluoro-1-methyl-3,4-dihydro-1H-quinolin-2-one hydrochloride], the EC50 at human CYP11B1 stood at 4480 nM; at human CYP11B2 it was 193 nM.
On the same counts, the results for `Cc1noc(C)c1C(=O)NC(C)c1cncc(-c2ccc3c(c2)CCC(=O)N3C)c1Cl` (single isomer, unassigned) [Example 257, 3,5-Dimethyl-isoxazole-4-carboxylic acid {(R or S)-1-[4-chloro-5-(1-methyl-2-oxo-1,2,3,4-tetrahydro-quinolin-6-yl)-pyridin-3-yl]-ethyl}-amide] are 679 nM and 22 nM.
Consider `Cc1c(-c2cc3c(cc2F)N(C)C(=O)CC3)cncc1C(C)NC(=O)c1ncccc1Cl` (single isomer, unassigned) [Example 258, 3-Chloro-pyridine-2-carboxylic acid {(R or S)-1-[5-(7-fluoro-1-methyl-2-oxo-1,2,3,4-tetrahydro-quinolin-6-yl)-4-methyl-pyridin-3-yl]ethyl}-amide], for which the EC50 was 291 nM at human CYP11B1 and 13 nM on human CYP11B2.

These data come from patent US9260408B2, “Dihydroquinoline-2-one derivatives” (Hoffmann-La Roche Inc., priority 2011, dated 2016).
